Reference: publication PMC12396409, “Screening and hit evaluation of a microbial metabolite library against the pathogenic Plasmodium falciparum and Toxoplasma gondii parasites” (International Journal for Parasitology: Drugs and Drug …, 2025)
Like-named read-outs stand apart in the source and are kept apart here.

Legend:
P. falciparum = conditions: cited from earlier work
[1] = system: P. falciparum 3D7 parasites; experiment: P. falciparum growth inhibition assay, 2-cycle (120 h treatment), delayed-death screen and dose-response; type: cell-based, Plasmodium falciparum; conditions: for IC50: 3D7, read-out: IC50, P. falciparum, 120 h dose-response (delayed-death)
[2] = system: T. gondii RH strain (RH-Tub-eYFP) tachyzoites; experiment: microbe, parasite or virus in culture; type: cell-based, Toxoplasma gondii
[3] = system: P. falciparum 3D7 parasites; experiment: P. falciparum growth inhibition assay, 1-cycle (72 h treatment), SYBR DNA staining (library screen at 2 μg/mL and dose-response); type: cell-based, Plasmodium falciparum; conditions: for activity in the screen against P. falciparum: 2 μg/mL, active = ≥80 % growth inhibition; for Screen (P. falciparum): 3D7, 72 h, DD from the 120 h timepoint
[4] = system: human neonatal foreskin fibroblast (NFF); experiment: Cytotoxicity screen at 5 μg/mL, resazurin dye assay, 96 h
Leishmania = conditions: ref Filho et al., 2024; cited from earlier work
[5] = 48–72 h, ref Wilson et al., 2013, read-out: IC50 at 48–72 h
[6] = P. falciparum, growth at 72 h / growth at 120 h, 2 μg/mL
[7] = Plasmodium falciparum, 3D7; P. falciparum, 2 μg/mL, 120 h; read-out: 2) Growth (%) at 120 h
[8] = Plasmodium falciparum, 3D7, library screen at 2 μg/mL, 120 h, % growth, replicate 1, read-out: Pf_120h_%Growth_Rep1
[9] = Plasmodium falciparum, 3D7, library screen at 2 μg/mL, 120 h, % growth, replicate 2, read-out: Pf_120h_%Growth_Rep2
[10] = Toxoplasma gondii, 72 h, library screen at 2 μg/mL, 72 h, % growth, replicate 1; read-out: Tg_72h_%Growth_Rep1
[11] = Toxoplasma gondii, 72 h, library screen at 2 μg/mL, 72 h, % growth, replicate 2; read-out: Tg_72h_%Growth_Rep2
[12] = Plasmodium falciparum, 3D7; P. falciparum, 2 μg/mL, 72 h; read-out: 1) Growth (%) at 72 h
[13] = Plasmodium falciparum, 3D7, library screen at 2 μg/mL, 72 h, % growth, replicate 1, read-out: Pf_72h_%Growth_Rep1
[14] = Plasmodium falciparum, 3D7, library screen at 2 μg/mL, 72 h, % growth, replicate 2, read-out: Pf_72h_%Growth_Rep2
[15] = Plasmodium falciparum, 3D7, P. falciparum, 120 h, parasite screen 2 μg/mL, % growth, replicate 1, read-out: Pf_120h_%Growth_Rep1
[16] = Plasmodium falciparum, 3D7, P. falciparum, 120 h, parasite screen 2 μg/mL, % growth, replicate 2, read-out: Pf_120h_%Growth_Rep2
[17] = 2 μg/mL, 72 h, active = ≥80 % growth inhibition
[18] = Toxoplasma gondii, 72 h, T. gondii, 72 h, parasite screen 2 μg/mL, % growth, replicate 1; read-out: Tg_72h_%Growth_Rep1
[19] = Toxoplasma gondii, 72 h, T. gondii, 72 h, parasite screen 2 μg/mL, % growth, replicate 2; read-out: Tg_72h_%Growth_Rep2
[20] = Toxoplasma gondii; RH strain, 72 h, mean ± S.D., n ≥ 3; read-out: IC50 (μM), T. gondii (converted)
[21] = Plasmodium falciparum, 3D7, P. falciparum, 72 h, parasite screen 2 μg/mL, % growth, replicate 1, read-out: Pf_72h_%Growth_Rep1
[22] = Plasmodium falciparum, 3D7, P. falciparum, 72 h, parasite screen 2 μg/mL, % growth, replicate 2, read-out: Pf_72h_%Growth_Rep2
[23] = Plasmodium falciparum, 3D7, 72 h treatment, mean ± S.D., n ≥ 3, read-out: IC50 (μM), P. falciparum
[24] = Plasmodium falciparum, 3D7, P. falciparum, 120 h, screen at 2 μg/mL, replicate 1, read-out: Pf_120h_%Growth_Rep1
[25] = Plasmodium falciparum, 3D7, P. falciparum, 120 h, screen at 2 μg/mL, replicate 2, read-out: Pf_120h_%Growth_Rep2
[26] = Plasmodium falciparum, 3D7, P. falciparum, 72 h, screen at 2 μg/mL, replicate 1, read-out: Pf_72h_%Growth_Rep1
[27] = Plasmodium falciparum, 3D7, P. falciparum, 72 h, screen at 2 μg/mL, replicate 2, read-out: Pf_72h_%Growth_Rep2
[28] = fibroblasts over T. gondii, for cryptopleurine the parasite is not stated
[29] = library screen at 2 μg/mL, 72 h, % growth, replicate 1
[30] = library screen at 2 μg/mL, 72 h, % growth, replicate 2

## CC[C@H]1OC(=O)[C@H](C)[C@@H](O[C@H]2C[C@@](C)(OC)[C@@H](O)[C@H](C)O2)[C@H](C)[C@@H](O[C@@H]2O[C@H](C)C[C@H](N(C)C)[C@H]2O)[C@](C)(O)C[C@@H](C)CN(C)[C@H](C)[C@@H](O)[C@]1(C)O [Azithromycin, reference compound]
P. falciparum; [5]
  IC50: ≥ 5 µM
P. falciparum; ref Wilson et al., 2013
  IC50 at more than 96 h: low nanomolar range
[1]; [6]
  3) Fold change (72 h/120 h): 6.4
[1]; [7]
  activity at 2 µg/mL: 8.77%
[1]; [8]
  activity at 2 µg/mL: 17.2%
[1]; [9]
  activity at 2 µg/mL: 0.35%
[2]; [10]
  percent parasite growth at 2 µg/mL: 41.8%
[2]; [11]
  percent parasite growth at 2 µg/mL: 36%
[3]; [12]
  activity at 2 µg/mL: 56.2%
[3]; [13]
  activity at 2 µg/mL: 59.3%
[3]; [14]
  activity at 2 µg/mL: 53.1%

## C=C[C@]1(C)C[C@@H](OC(=O)CS[C@@H]2C[C@H]3CC[C@@H](C2)N3C)[C@]2(C)[C@H](C)CC[C@]3(CCC(=O)[C@H]32)[C@@H](C)[C@@H]1O [Retapamulin, reference compound]
[1]; Plasmodium falciparum
  IC50: 106 nM
[1]; [15]
  activity at 2 µg/mL: -0.64%
[1]; [16]
  activity at 2 µg/mL: 3.58%
HFF cells
  selectivity index: greater than 100
[2]; [17]
  activity in the screen against T. gondii: active against both P. falciparum and T. gondii
[2]; [18]
  percent parasite growth at 2 µg/mL: 2.49%
[2]; [19]
  percent parasite growth at 2 µg/mL: 9.45%
[2]; [20]
  IC50: 0.085 µM
[2]; library screen at 2 μg/mL, RH strain, 72 h
  Screen (T. gondii): A, A
[3]; 72 h
  activity in the screen against P. falciparum: active against both P. falciparum and T. gondii
[3]; [21]
  activity at 2 µg/mL: 8.14%
[3]; [22]
  activity at 2 µg/mL: 8.89%
[3]; [23]
  IC50: > 1 µM
[3]; library screen at 2 μg/mL
  Screen (P. falciparum): A, A

## CC(/C=C/C[C@@H](C)/C=C(C)/C=C/[C@@H]1OC(=O)C=C[C@@H]1C)=C\[C@@H](C)C(=O)[C@@H](C)[C@H](O)[C@@H](C)C/C(C)=C/C(=O)O [leptomycin A]
[4]
  cytotoxic activity in the screen against fibroblasts: cytotoxic activity

## C=C(NC(=O)C(=C)NC(=O)c1csc(C2=N[C@@H]3c4csc(n4)[C@H]4NC(=O)c5csc(n5)[C@H]([C@](C)(O)[C@@H](C)O)NC(=O)[C@H]5CSC(=N5)/C(=C/C)NC(=O)[C@H]([C@@H](C)O)NC(=O)c5csc(n5)[C@]3(CC2)NC(=O)[C@H](C)NC(=O)C(=C)NC(=O)[C@H](C)NC(=O)[C@H]([C@@H](C)CC)N[C@@H]2C=Cc3c([C@H](C)O)cc(nc3[C@H]2O)C(=O)O[C@@H]4C)n1)C(N)=O [thiostrepton, reference compound]
P. falciparum; ref Aminake et al., 2011, Schoof et al., 2010, read-out: IC50 in Plasmodium
  IC50: ~10 µM
[1]; [24]
  activity at 2 µg/mL: 60.6%
[1]; [25]
  activity at 2 µg/mL: 35.5%
[2]; Toxoplasma gondii; T. gondii, 72 h, screen at 2 μg/mL, replicate 1; read-out: Tg_72h_%Growth_Rep1
  percent parasite growth at 2 µg/mL: 86.7%
[2]; Toxoplasma gondii; T. gondii, 72 h, screen at 2 μg/mL, replicate 2; read-out: Tg_72h_%Growth_Rep2
  percent parasite growth at 2 µg/mL: 93.6%
[3]; [26]
  activity at 2 µg/mL: 56.7%
[3]; [27]
  activity at 2 µg/mL: 65.2%

## C=C[C@]1(C)C[C@@H](OC(=O)CSC(C)(C)CNC(=O)[C@H](N)C(C)C)[C@]2(C)[C@H](C)CC[C@]3(CCC(=O)[C@H]32)[C@@H](C)[C@@H]1O [Valnemulin, reference compound]
[1]; 2 μg/mL, criteria: ≥40 % growth at 72 h, ≤20 % growth at 120 h, at least 5-fold
  delayed-death activity in the 120 h screen against P. falciparum: meeting two of our three criteria for delayed-death activity
[1]; [6]
  3) Fold change (72 h/120 h): 3.7
[1]; Plasmodium falciparum
  IC50: 64 nM
[1]; [7]
  activity at 2 µg/mL: 13.4%
[1]; [24]
  activity at 2 µg/mL: 15%
[1]; [25]
  activity at 2 µg/mL: 11.8%
HFF cells; [28]
  selectivity index: greater than 100
[2]; [17]
  activity in the screen against T. gondii: active against T. gondii
[2]; Toxoplasma gondii, 72 h, T. gondii, 72 h, screen at 2 μg/mL, replicate 1; read-out: Tg_72h_%Growth_Rep1
  percent parasite growth at 2 µg/mL: 13.1%
[2]; Toxoplasma gondii, 72 h, T. gondii, 72 h, screen at 2 μg/mL, replicate 2; read-out: Tg_72h_%Growth_Rep2
  percent parasite growth at 2 µg/mL: 19.6%
[2]; [20]
  IC50: 0.232 µM
[3]; [12]
  activity at 2 µg/mL: 50.1%
[3]; [26]
  activity at 2 µg/mL: 44.3%
[3]; [27]
  activity at 2 µg/mL: 55.9%
[3]; [23]
  IC50: > 1 µM
[3]; library screen at 2 μg/mL
  Screen (P. falciparum): DD^

## CC[C@H]1OC(=O)[C@H](C)[C@@H](O[C@H]2C[C@@](C)(OC)[C@@H](O)[C@H](C)O2)[C@H](C)[C@@H](O[C@@H]2O[C@H](C)C[C@H](N(C)C)[C@H]2O)[C@](C)(O)C[C@@H](C)/C(=N\OCOCCOC)[C@H](C)[C@@H](O)[C@]1(C)O [Roxithromycin, reference compound]
P. falciparum; 48 h, ref Min et al., 2007, read-out: IC50 at 48 h
  IC50: ~4 µM
P. falciparum; increased treatment duration, ref Min et al., 2007, read-out: IC50 with increased treatment duration
  IC50: 1 to 2 µM
[1]
  3) Fold change (72 h/120 h): 3.6
[1]; [7]
  activity at 2 µg/mL: 8.49%
[1]; [15]
  activity at 2 µg/mL: 18.3%
[1]; [16]
  activity at 2 µg/mL: -1.36%
[2]; [18]
  percent parasite growth at 2 µg/mL: 33.7%
[2]; [19]
  percent parasite growth at 2 µg/mL: 33.3%
[3]; [12]
  activity at 2 µg/mL: 30.9%
[3]; [21]
  activity at 2 µg/mL: 34.6%
[3]; [22]
  activity at 2 µg/mL: 27.2%

## C[C@H]1c2cccc(O)c2C(=O)C2=C(O)[C@]3(O)C(=O)C(C(N)=O)=C(O)[C@@H](N(C)C)[C@@H]3[C@@H](O)[C@@H]21 [Doxycycline, reference compound]
P. falciparum; [5]
  IC50: ≥ 5 µM
P. falciparum; ref Wilson et al., 2013
  IC50 at more than 96 h: low nanomolar range
[1]
  3) Fold change (72 h/120 h): 6.3
[1]; [7]
  activity at 2 µg/mL: 7.68%
[1]; [8]
  activity at 2 µg/mL: 8.86%
[1]; [9]
  activity at 2 µg/mL: 6.5%
[2]; [10]
  percent parasite growth at 2 µg/mL: 41%
[2]; [11]
  percent parasite growth at 2 µg/mL: 47.5%
[3]; [12]
  activity at 2 µg/mL: 48.6%
[3]; [13]
  activity at 2 µg/mL: 55.3%
[3]; [14]
  activity at 2 µg/mL: 41.9%

## Pladienolide B
HFF cells; [28]
  selectivity index: 7
HFF cells; read-out: IC50, cytotoxicity against human fibroblasts, HFF, 72 h
  IC50: 47 nM
[2]; [17]
  activity in the screen against T. gondii: active against T. gondii but not P. falciparum
[2]; 72 h; read-out: IC50, T. gondii
  IC50: 0.0067 ± 0.0044 µM
[3]; 72 h
  activity in the screen against P. falciparum: active against T. gondii but not P. falciparum

## Beauvericin
Leishmania
  reported activity in Leishmania: around 1 μM
[1]; library screen at 2 μg/mL, 120 h, % growth, replicate 1
  Pf_120h_%Growth_Rep1: 4.73%
[1]; library screen at 2 μg/mL, 120 h, % growth, replicate 2
  Pf_120h_%Growth_Rep2: 5.37%
[2]; [29]
  Tg_72h_%Growth_Rep1: 86.72%
[2]; [30]
  Tg_72h_%Growth_Rep2: 89.12%
[3]; 3D7, 72 h treatment, mean ± S.D., n ≥ 3, read-out: IC50 (μM), P. falciparum
  IC50: 0.499 ± 0.029 µM
[3]; 72 h treatment, read-out: IC50, P. falciparum
  IC50: 0.5 µM
[3]; [29]
  Pf_72h_%Growth_Rep1: 7.31%
[3]; [30]
  Pf_72h_%Growth_Rep2: 5.24%
